Assay [1] relates to TNFα production in LPS-stimulated Raw264.7 cells. The assay can be described thus: TNFα production inhibition test. The assay is classed as cell-based. The conditions noted are these: Mus musculus, test compound 1 μmol/L, LPS 1 μg/mL, 16 hours, ELISA, read-out: Inhibition rate of TNFα production. On the procedure:
7×10^4 mouse macrophage-derived cell line Raw264.7 cells were suspended in 100 μL of RPMI1640 medium containing 10% fetal bovine serum, plated in a 96-well plate and incubated overnight. The culture supernatant was removed and the test compound diluted in RPMI1640 medium containing 1% fetal bovine serum (final concentration: 1 μmol/L) was added. One hour after the addition, LPS (B4:0111) (Sigma-Aldrich, L2630) was added to a final concentration of 1 μg/mL. 16 hours after the stimulation, the culture supernatant was collected and the amount of TNFα produced in the culture supernatant was determined using ELISA kit (R&D Systems, MTA00B).
The inhibition rate was calculated from the following formula. Inhibition rate (%)=100−(amount of TNFα produced in the presence of test compound/amount of TNFα produced in the absence of test compound)×100

For assay [2], the system named is normal human neonatal foreskin epidermal keratinocytes (NHEK-F). The assay can be described thus: Cell proliferation inhibition test. The class given is cell-based. The conditions noted are these: Keratinocyte, 72 h, NHEK-F cells, three days incubation, ATPlite or CellTiterGlo, read-out: IC50 (concentration of the compound at which the cell count is reduced by 50%). Summed up: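 IC50 is the compound level halving cell count relative to untreated wells, with counts from ATP-based luminescence (ATPlite or CellTiterGlo). Readout followed 3 days of compound exposure of overnight-attached neonatal foreskin keratinocytes (2×10^3/well, Humedia-EG2 medium).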
For orientation: Cellular ATP, detected with luciferase, serves as a proxy for viable cell number.

SMILES strings stand for the structures. Bounds are passed on as bounds.

As usually defined, the inhibition is the drop in the measured response relative to a control, in per cent.

For `O=C(O)c1cc(C2CC2)ccc1Nc1cnc2c(ccn2Cc2ccccc2)c1` [Example 27, 2-((1-benzyl-1H-pyrrolo(2,3-b)pyridin-5-yl)amino)-5-cyclopropylbenzoic acid], the inhibition at 1 µM in assay [1] is no less than 50%. The IC50 in assay [2] was no more than 10 nM.

With `CN(C)c1ccc(Cn2ccc3cc(Nc4ccc(C5CC5)cc4C(=O)O)ccc32)cc1` [Example 198, 5-cyclopropyl-2-((1-(4-(dimethylamino)benzyl)-1H-indol-5-yl)amino)benzoic acid], the inhibition at 1 µM in assay [1] is no less than 50%. In addition, the IC50 in assay [2] is no more than 10 nM.

`O=C(O)c1cc(Cl)ccc1Nc1ccc2c(c1)ncc(=O)n2Cc1ccccc1` [Example 69, 2-((1-benzyl-2-oxo-1,2-dihydroquinoxalin-6-yl)amino)-5-chlorobenzoic acid]: in assay [1], the inhibition at 1 µM is no less than 50%. In addition, the IC50 in assay [2] lay in the range of 100 to 1000 nM.

`O=C(O)c1cc(C2CC2)ccc1Nc1ccc2c(c1)CC(=O)N2CC1CC1` [Example 108, 5-cyclopropyl-2-((1-(cyclopropylmethyl)-2-oxoindolin-5-yl)amino)benzoic acid]: in assay [1], the inhibition at 1 µM is no less than 50%. Moreover, the IC50 in assay [2] lay in the range of 10 to 100 nM.

Turning to `O=C(O)c1cc(C2CC2)ccc1Nc1ccc2c(ccn2-c2ccccc2)c1` [Example 59, 5-cyclopropyl-2-((1-phenyl-1H-indol-5-yl)amino)benzoic acid], the inhibition at 1 µM in assay [1] was no less than 50%. The IC50 in assay [2] was no more than 10 nM.

Regarding `O=C(O)c1cc(C2CC2)ccc1Nc1ccc2c(ccn2C(=O)c2ccccc2)c1` [Example 202, 2-((1-benzoyl-1H-indol-5-yl)amino)-5-cyclopropylbenzoic acid], in assay [1], the inhibition at 1 µM was no less than 50%. For the same compound, in assay [2], the IC50 was no more than 10 nM.

Turning to `O=C(O)c1cc(Cl)ccc1Nc1ccc2c(ccn2Cc2cccc(OC(F)(F)F)c2)c1` [Example 363, 5-chloro-2-((1-(3-(trifluoromethoxy)benzyl)-1H-indol-5-yl)amino)benzoic acid], the inhibition at 1 µM in assay [1] is no less than 50%. In assay [2], the IC50 is no more than 10 nM.

Consider `O=C(O)c1cc(Cl)cnc1Nc1ccc2c(ccn2Cc2cccc(OC(F)(F)F)c2)c1` [Example 361, 5-chloro-2-((1-(3-(trifluoromethoxy)benzyl)-1H-indol-5-yl)amino)nicotinic acid], for which the inhibition at 1 µM in assay [1] was no less than 50%. The IC50 in assay [2] was in the range of 10 to 100 nM.

In the case of `O=C(O)c1cc(Cl)ccc1Nc1ccc2c(cnn2Cc2ccccc2)c1` [Example 21, 2-((1-benzyl-1H-indazol-5-yl)amino)-5-chlorobenzoic acid], in assay [1], the inhibition at 1 µM is no less than 50%. Also, the IC50 in assay [2] is no more than 10 nM.

In the case of `COCCOc1cccc(Cn2ccc3cc(Nc4ccc(Cl)cc4C(=O)O)ccc32)c1` [Example 298, 5-chloro-2-((1-(3-(2-methoxyethoxyl)benzyl)-1H-indol-5-yl)amino)benzoic acid], the inhibition at 1 µM in assay [1] was no less than 50%. In assay [2], the IC50 is no more than 10 nM.

Consider `COc1ccc(-n2ccc3cc(Nc4ccc(C5CC5)cc4C(=O)O)ccc32)cc1` [Example 373, 5-cyclopropyl-2-((1-(4-methoxyphenyl)-1H-indol-5-yl)amino)benzoic acid], for which the inhibition at 1 µM in assay [1] was no less than 50%. For the same compound, the IC50 in assay [2] was no more than 10 nM.

In the case of `O=C(O)c1cc(Cl)ccc1Nc1ccc2c(c1)CN(c1ccccc1)C2=O` [Example 281, 5-chloro-2-((1-oxo-2-phenylisoindolin-5-yl)amino)benzoic acid], in assay [1], the inhibition at 1 µM is no less than 50%. Besides, the IC50 in assay [2] was 100 to 1000 nM.

`O=C(O)c1cc(Cl)ccc1Nc1ccc2c(ccn2-c2ccccc2F)c1` [Example 335, 5-chloro-2-((1-(2-fluorophenyl)-1H-indol-5-yl)amino)benzoic acid]: in assay [1], the inhibition at 1 µM was no less than 50%. Besides, the IC50 in assay [2] was no more than 10 nM.

For `CC(C)n1ccc2cc(Nc3ccc(C4CC4)cc3C(=O)O)ccc21` [Example 112, 5-cyclopropyl-2-((1-isopropyl-1H-indol-5-yl)amino)benzoic acid], the inhibition at 1 µM in assay [1] is no less than 50%. Further, in assay [2], the IC50 was no more than 10 nM.

Regarding `O=C(O)c1cc(Cl)ccc1Nc1ccc2c(ccn2Cc2cccc(N3CCOCC3)c2)c1` [Example 14, 5-chloro-2-((1-(3-morpholinobenzyl)-1H-indol-5-yl)amino)benzoic acid], the inhibition at 1 µM in assay [1] is no less than 50%. The IC50 in assay [2] was no more than 10 nM.

As to `O=C(O)c1cc(C2CC2)ccc1Nc1ccc2c(ccn2-c2ccc(C(F)(F)F)cc2)c1` [Example 375, 5-cyclopropyl-2-((1-(4-(trifluoromethyl)phenyl)-1H-indol-5-yl)amino)benzoic acid], the inhibition at 1 µM in assay [1] is no less than 50%. The IC50 in assay [2] was no more than 10 nM.

As for `O=C(O)c1cc(Cl)ccc1Nc1ccc2c(ccn2-c2ccccc2)c1` [Example 269, 5-chloro-2-((1-phenyl-1H-indol-5-yl)amino)benzoic acid], the inhibition at 1 µM in assay [1] is no less than 50%. Moreover, in assay [2], the IC50 is no more than 10 nM.

As for `O=C(O)c1cc(C2CC2)ccc1Nc1ccc2c(ccn2Cc2ccc(N3CCCCC3)cc2)c1` [Example 194, 5-cyclopropyl-2-((1-(4-(piperidin-1-yl)benzyl)-1H-indol-5-yl)amino)benzoic acid], the inhibition at 1 µM in assay [1] is no less than 50%. For the same compound, in assay [2], the IC50 is no more than 10 nM.

Regarding `O=C(O)c1cc(C2CC2)ccc1Nc1ccc2c(c1)n(CC1CC1)c(=O)n2-c1ccccc1` [Example 82, 5-cyclopropyl-2-((3-(cyclopropylmethyl)-2-oxo-1-phenyl-2,3-dihydro-1H-benzo[d]imidazol-5-yl)amino)benzoic acid], the inhibition at 1 µM in assay [1] is no less than 50%. In addition, in assay [2], the IC50 is 10 to 100 nM.

Regarding `O=C(O)c1cc(Cl)ccc1Nc1ccc2c(ccn2Cc2cccc(OCCO)c2)c1` [Example 300, 5-chloro-2-((1-(3-(2-hydroxyethoxy)benzyl)-1H-indol-5-yl)amino)benzoic acid], in assay [1], the inhibition at 1 µM was no less than 50%. The IC50 in assay [2] was in the range of 10 to 100 nM.

With `O=C(O)c1cc(C2CC2)ccc1Nc1ccc2c(ccn2CC2CC2)c1` [Example 104, 5-cyclopropyl-2-((1-(cyclopropylmethyl)-1H-indol-5-yl)amino)benzoic acid], the inhibition at 1 µM in assay [1] was no less than 50%. Further, the IC50 in assay [2] is no more than 10 nM.

For `O=C(O)c1cc(Cl)ccc1Nc1ccc2c(ccn2Cc2ccccc2)c1` [Example 2, 2-((1-benzyl-1H-indol-5-yl)amino)-5-chlorobenzoic acid], the inhibition at 1 µM in assay [1] was no less than 50%. Further, the IC50 in assay [2] was no more than 10 nM.

Take `O=C(O)c1cc(Cl)ccc1Nc1ccc2c(ccn2-c2ccccc2C(F)(F)F)c1` [Example 337, 5-chloro-2-((1-(2-(trifluoromethyl)phenyl)-1H-indol-5-yl)amino)benzoic acid]: the inhibition at 1 µM in assay [1] was no less than 50%. In assay [2], the IC50 is no more than 10 nM.

`O=C(O)c1cc(C2CC2)ccc1Nc1ccc2c(c1)n(CC(F)(F)F)c(=O)n2-c1ccccc1` [Example 80, 5-cyclopropyl-2-((2-oxo-1-phenyl-3-(2,2,2-trifluoroethyl)-2,3-dihydro-1H-benzo[d]imidazol-5-yl)amino)benzoic acid]: the inhibition at 1 µM in assay [1] was no less than 50%. Moreover, in assay [2], the IC50 lay within 10 to 100 nM.

As to `O=C(O)c1cc(Cl)ccc1Nc1ccc2c(ccn2-c2cccc(C(F)(F)F)c2)c1` [Example 333, 5-chloro-2-((1-(3-(trifluoromethyl)phenyl)-1H-indol-5-yl)amino)benzoic acid], the inhibition at 1 µM in assay [1] is no less than 50%. Also, the IC50 in assay [2] was no more than 10 nM.
